biological target: T1, HGFR (Homo sapiens, UniProt P08581); test: HGFR continuous-coupled spectrophotometric assay; type: biochemical; conditions: not given
T1 construct: purchased Upstate 14-526
T1 sequence (P08581 974-1390 limits assumed): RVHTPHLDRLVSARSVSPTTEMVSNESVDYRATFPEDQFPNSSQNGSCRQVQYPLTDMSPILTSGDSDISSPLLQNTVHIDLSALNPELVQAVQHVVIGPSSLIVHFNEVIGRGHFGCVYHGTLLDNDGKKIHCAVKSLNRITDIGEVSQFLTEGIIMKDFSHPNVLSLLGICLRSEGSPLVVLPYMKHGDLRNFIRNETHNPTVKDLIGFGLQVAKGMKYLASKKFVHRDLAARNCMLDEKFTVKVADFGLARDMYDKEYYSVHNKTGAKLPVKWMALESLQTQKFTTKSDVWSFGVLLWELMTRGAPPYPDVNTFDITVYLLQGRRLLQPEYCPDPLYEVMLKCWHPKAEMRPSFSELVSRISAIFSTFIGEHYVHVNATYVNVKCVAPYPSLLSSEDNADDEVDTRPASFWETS

Compound	% inhibition
Cc1cnccc1COc1cc(-c2ccc(C(=O)N3CCC(N4CCCC4)CC3)cc2)cnc1N	% inhibition = 11
Nc1ncc(-c2ccc(C(=O)N3CCC(N4CCCC4)CC3)cc2)cc1OCc1cn2cccnc2n1	% inhibition = 16
Nc1ncc(-c2ccc(C(=O)N3CCC(N4CCCC4)CC3)cc2)cc1OCc1ccc(S(=O)(=O)Nc2ccc(F)cc2)cc1	% inhibition = 15
COc1ccccc1-c1nc(COc2cc(-c3ccc(C(=O)N4CCC(N5CCCC5)CC4)cc3)cnc2N)c(C)o1	% inhibition = 19
Nc1ncc(-c2ccc(C(=O)N3CCC(N4CCCC4)CC3)cc2)cc1OCc1cccc(OC(F)(F)F)c1	% inhibition = 13
Nc1ncc(-c2ccc(C(=O)N3CCC(N4CCCC4)CC3)cc2)cc1OCc1csc(-c2ccc(Cl)cc2)n1	% inhibition = 9
Nc1ncc(-c2ccc(C(=O)N3CCC(N4CCCC4)CC3)cc2)cc1OCc1cc(-c2c(Cl)cccc2Cl)no1	% inhibition = 14
N#Cc1cccc(COc2cc(-c3ccc(C(=O)N4CCC(N5CCCC5)CC4)cc3)cnc2N)c1	% inhibition = 12
COC(=O)Nc1cc(COc2cc(-c3ccc(C(=O)N4CCC(N5CCCC5)CC4)cc3)cnc2N)on1	% inhibition = 18
CCOC(=O)c1nc(COc2cc(-c3ccc(C(=O)N4CCC(N5CCCC5)CC4)cc3)cnc2N)no1	% inhibition = 8
Nc1ncc(-c2ccc(C(=O)N3CCC(N4CCCC4)CC3)cc2)cc1OCc1noc(-c2ccccc2)n1	% inhibition = 16

Next, values leading:

% inhibition	Compound
% inhibition = 15	CCOC(=O)CCNS(=O)(=O)c1ccc(COc2cc(-c3ccc(C(=O)N4CCC(N5CCCC5)CC4)cc3)cnc2N)cc1
% inhibition = 24	Nc1ncc(-c2ccc(C(=O)N3CCC(N4CCCC4)CC3)cc2)cc1OCc1cc(F)ccc1Br
% inhibition = 10	Cc1nc2scc(COc3cc(-c4ccc(C(=O)N5CCC(N6CCCC6)CC5)cc4)cnc3N)c2c(=O)[nH]1

same assay, conditions: Table 3; Ki(μM) or I(%); test concentration not given

I(%)	Compound
0%	Cc1ccccc1COc1cc(-c2ccc(C(=O)N3CC(C)NC(C)C3)cc2)cnc1N (stereo not shown) [Example I-624, {4-[6-Amino-5-(2-methyl-benzyloxy)-pyridin-3-yl]-phenyl}-(3,5-dimethyl-piperazin-1-yl)-methanone]

same assay, conditions: Table 5; percent c-MET inhibition at 50 nM

inhibition at 0.05 µM	Compound
65%	CC(Oc1cc(-c2ccc(C(=O)N[C@H]3C[C@@H]3c3ccccc3)cc2)cnc1N)c1c(Cl)ccc(F)c1Cl (stereo partly shown)
77%	CC(Oc1cc(-c2ccc(C(=O)N3CCN(CCC#N)CC3)cc2)cnc1N)c1c(Cl)ccc(F)c1Cl (stereo not shown)
84%	CC(Oc1cc(-c2ccc(C(=O)N3CCCC(C(N)=O)C3)cc2)cnc1N)c1c(Cl)ccc(F)c1Cl (stereo not shown)

same assay, conditions: Table 6; percent c-MET inhibition at 1 μM; read-out: % inhibition

Compound	inhibition at 1 µM
Nc1ncc(C(=O)N2CCN(CC(=O)N3CCOCC3)CC2)cc1OCc1c(Cl)cccc1Cl	31%
Nc1ncc(C(=O)N2CCn3c(CO)nnc3C2)cc1OCc1c(Cl)cccc1Cl	31%
CCS(=O)(=O)N1CCN(C(=O)c2cnc(N)c(OCc3c(Cl)cccc3Cl)c2)CC1	22%
Nc1ncc(C(=O)NC[C@]2(O)CC[C@H](c3ccccc3)CC2)cc1OCc1c(Cl)cccc1Cl	15%
Nc1ncc(C(=O)N2CCCC(N3CCOCC3)CC2)cc1OCc1c(Cl)cccc1Cl (stereo not shown)	18%
Nc1ncc(C(=O)N2CCCN(Cc3ccc(F)cc3)CC2)cc1OCc1c(Cl)cccc1Cl	26%
Nc1ncc(C(=O)N2CCN(c3ccccn3)CC2)cc1OCc1c(Cl)cccc1Cl	34%

Continued, values first:

inhibition at 1 µM	Compound
33%	Cc1cnc(CNC(=O)c2cnc(N)c(OCc3c(Cl)cccc3Cl)c2)cn1
29%	Nc1ncc(C(=O)NCC(O)c2ccc(O)cc2)cc1OCc1c(Cl)cccc1Cl (stereo not shown)
33%	Nc1ncc(C(=O)N2CCCC(O)C2)cc1OCc1c(Cl)cccc1Cl (stereo not shown)
25%	CS(=O)(=O)CCN1CCN(C(=O)c2cnc(N)c(OCc3c(Cl)cccc3Cl)c2)CC1
35%	Nc1ncc(C(=O)N2CCC(O)CC2)cc1OCc1c(Cl)cccc1Cl
32%	C[C@@H]1CN(C(=O)c2cnc(N)c(OCc3c(Cl)cccc3Cl)c2)C[C@H](C)O1

Reference: US8106197B2, “Aminoheteroaryl compounds as protein kinase inhibitors” (Pfizer Inc., priority 2003, dated 2012)
